Data as given in the supplement of paper PMC10307832.

Legend:
Assay in all cases: relative viability (nuclei count vs DMSO), 5 days (fraction); higher = more cells survive
VX-11e + Lapatinib = compound: CC1=CN=C(N=C1C2=CNC(=C2)C(=O)N[C@H](CO)C3=CC(=CC=C3)Cl)NC4=C(C=C(C=C4)F)Cl [VX-11e] + CS(=O)(=O)CCNCc1ccc(-c2ccc3ncnc(Nc4ccc(OCc5cccc(F)c5)c(Cl)c4)c3c2)o1 [Lapatinib] (partner 2 µM)
In short: (§1)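 Relative viability was taken as the ratio of nuclei in treated wells to nuclei in vehicle wells. Lung cancer cell lines in 1536-well plates received compounds by pin tool one day after seeding, either one drug alone or a fixed anchor-drug dose plus five library-drug doses (not always all listed) in √10 steps. Nuclei were counted on 4× images after 5 days of treatment, and values are medians of duplicate plates.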

VX-11e + Crizotinib = compound: CC1=CN=C(N=C1C2=CNC(=C2)C(=O)N[C@H](CO)C3=CC(=CC=C3)Cl)NC4=C(C=C(C=C4)F)Cl [VX-11e] + C[C@@H](Oc1cc(-c2cnn(C3CCNCC3)c2)cnc1N)c1c(Cl)ccc(F)c1Cl [Crizotinib] (partner 1 µM)
In short: as §1

VX-11e + Decitabine = compound: CC1=CN=C(N=C1C2=CNC(=C2)C(=O)N[C@H](CO)C3=CC(=CC=C3)Cl)NC4=C(C=C(C=C4)F)Cl [VX-11e] + Nc1ncn([C@H]2C[C@H](O)[C@@H](CO)O2)c(=O)n1 [Decitabine] (partner 2 µM)
In short: as §1

VX-11e + Tozasertib = compound: CC1=CN=C(N=C1C2=CNC(=C2)C(=O)N[C@H](CO)C3=CC(=CC=C3)Cl)NC4=C(C=C(C=C4)F)Cl [VX-11e] + Cc1cc(Nc2cc(N3CCN(C)CC3)nc(Sc3ccc(NC(=O)C4CC4)cc3)n2)n[nH]1 [Tozasertib] (partner 0.1 µM)
In short: as §1

Cell Line	relative viability (VX-11e + Lapatinib; first compound 0.04 µM)	relative viability (VX-11e + Lapatinib; first compound 0.1265 µM)	relative viability (VX-11e + Lapatinib; first compound 1.265 µM)	relative viability (VX-11e + Lapatinib; first compound 4 µM)	relative viability (VX-11e + Crizotinib; first compound 0.04 µM)	relative viability (VX-11e + Crizotinib; first compound 0.1265 µM)	relative viability (VX-11e + Crizotinib; first compound 1.265 µM)	relative viability (VX-11e + Crizotinib; first compound 4 µM)	relative viability (VX-11e + Lapatinib; first compound 0.4 µM)	relative viability (VX-11e + Decitabine; first compound 0.1265 µM)	relative viability (VX-11e + Decitabine; first compound 1.265 µM)	relative viability (VX-11e + Decitabine; first compound 4 µM)	relative viability (VX-11e + Crizotinib; first compound 0.4 µM)	relative viability (VX-11e + Tozasertib; first compound 0.04 µM)	relative viability (VX-11e + Tozasertib; first compound 0.1265 µM)	relative viability (VX-11e + Tozasertib; first compound 1.265 µM)	relative viability (VX-11e + Tozasertib; first compound 4 µM)	relative viability (VX-11e + Decitabine; first compound 0.4 µM)	relative viability (VX-11e + Tozasertib; first compound 0.4 µM)	relative viability (VX-11e + Decitabine; first compound 0.04 µM)
NCI-H1703	1.49	1.18	1.08	0.791	0.985	0.727	0.589	0.582	–	–	–	–	–	–	–	–	–	–	–	–
NCI-H1792	0.889	0.91	0.86	0.755	0.956	0.954	0.982	0.52	1	0.493	0.619	0.328	0.915	–	–	–	–	–	–	–
NCI-H1793	–	0.611	0.397	0.278	–	–	–	–	–	0.406	0.516	0.351	–	0.345	0.293	0.228	0.133	–	–	–
NCI-H2228	1.23	1.17	0.691	0.309	0.533	0.524	0.263	0.303	0.158	–	–	–	0.463	0.248	0.202	0.149	0.115	–	–	–
NCI-H2342	–	–	–	–	–	–	–	–	–	0.797	0.787	0.6	–	0.422	0.503	0.406	0.416	0.752	0.498	–
SW 900	–	–	–	–	–	–	–	–	–	0.491	0.529	0.455	–	0.737	0.401	0.307	0.258	–	0.409	0.443
